What all share (type): cell-based
One test concerns the target T1, human V1a receptor (Homo sapiens, UniProt P37288).
T1 construct: expressed in transfected cells
As to the kind of experiment: Calcium flux assay (FLIPR), agonist mode, CHO cells expressing human V1a receptor. As to conditions: read-out: hV1a EC50. An excerpt:
(§1) Chines Hamster Ovary (CHO) cells were transfected with expression plasmids encoding either the human V1a, the human Oxytocin (OTR) or the human V2 receptor, the later in combination with the chimeric Gqs5 G protein to redirect the signal to Calcium flux. Stable cells were cloned by limiting dilution to yield monoclonal cell lines expressing either human V1a, human V2+Gqs5 or human OTR receptors and selected based on functional responses detected on a fluorometric imaging plate reader (FLIPR) detecting Calcium flux in the cell after receptor activation. The stable cell lines were grown in F-12 K Nutrient Mixture (Kaighns Modification), containing 10% foetal bovine serum (FBS), 1% penicillin-streptomycin, 1% L-[…], 200 ug/ml Geneticin at 37° C. in a 10% CO2 incubator at 95% humidity.
(§2) On the afternoon before the assay, cells were plated at a density of 50,000 cells/well into black 96 well plates with clear bottoms to allow cell inspection and fluorescence measurements from the bottom of each well. The density of cells was sufficient to yield a confluent monolayer the next day. Hanks balanced salt solution, without phenol red, containing 20 mM HEPES (pH 7.3) and 2.5 mM probenecid (assay buffer) was prepared fresh for each experiment. Compound dilutions were made using a Beckman Biomek 2000 laboratory automation workstation, in assay buffer containing 1% DMSO. The dye-loading buffer consisted of a final concentration of 2 μM Fluo-4-AM (dissolved in DMSO and pluronic acid) in assay buffer. The existing culture media was removed from the wells and 100 μl of the dye-loading buffer was added to each well and incubated for approximately 60 min at 37° C. in a 5% CO2 incubator at 95% humidity. Once dye-loaded, the cells were washed thoroughly on an Embla cell washer with the assay buffer to remove any unincorporated dye. Exactly 100 μl assay buffer was left in each well.
(§3) Each 96 well plate containing dye-loaded cells was placed into the FLIPR machine and the laser intensity set to a suitable level to detect low basal fluorescence. To test compounds as agonists, 25 μl diluted compound was added to the plate 10 seconds into the fluorescent measurements and fluorescent response was recorded for 5 minutes. The fluorescence data was normalized to the endogenous full agonist dose-response set at 100% for the maximum response and 0% for the minimum. Each agonist concentration-response curve was constructed using a four parameter logistic equation with Microsoft Excel XLFit as follows: Y=Minimum+((Maximum−Minimum)/(1+10^(LogEC50-X)nH)), where y is the % normalized fluorescence, minimum is the minimum y, maximum is the maximum y, logEC50 is the log10 concentration which produces 50% of the maximum induced fluorescence, x is the log10 of the concentration of the agonist compound and H is the slope of the curve (the Hill Coefficient). The maximum value gives the efficacy of the agonist test compound in percentage. The concentration of agonist that produced a half-maximal response is represented by the EC50 value, the logarithm of which yielded the pEC50 value.

The target in test [1] is T2, human Oxytocin (OTR) receptor (Homo sapiens, UniProt P30559).
T2 construct: expressed in transfected cells
T2 sequence (P30559 1-389): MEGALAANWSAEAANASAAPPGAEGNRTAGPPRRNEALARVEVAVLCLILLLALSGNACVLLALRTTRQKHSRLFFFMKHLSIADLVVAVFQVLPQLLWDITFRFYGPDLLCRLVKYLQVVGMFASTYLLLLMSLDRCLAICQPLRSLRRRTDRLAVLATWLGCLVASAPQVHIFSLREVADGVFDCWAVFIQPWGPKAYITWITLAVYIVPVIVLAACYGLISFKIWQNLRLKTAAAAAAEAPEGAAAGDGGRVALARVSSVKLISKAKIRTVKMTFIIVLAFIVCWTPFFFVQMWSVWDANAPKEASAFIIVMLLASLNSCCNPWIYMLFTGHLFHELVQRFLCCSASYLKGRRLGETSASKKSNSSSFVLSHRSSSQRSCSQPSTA
As to the kind of experiment: Calcium flux assay (FLIPR), agonist mode, CHO cells expressing human oxytocin receptor. The note with it: for EC50: CHO cells, human OTR, calcium flux FLIPR, read-out: hOT EC50; for Emax: CHO, read-out: hOT efficacy (%); for Emax / hOT efficacy (%): maximum response normalized to endogenous full agonist = 100%.
Excerpt: as §1, §2, §3

Another test has as its target T3, human V2 receptor (Homo sapiens, UniProt P30518).
T3 construct: expressed in transfected cells
Kind of test: Calcium flux assay (FLIPR), agonist mode, CHO cells expressing human V2 receptor + Gqs5. The note with it: for EC50: CHO cells, human V2 + chimeric Gqs5, calcium flux FLIPR, read-out: hV2 EC50.
Excerpt: as §1, §2, §3

The mark [2] stands for this setting: maximum response normalized to endogenous full agonist = 100%.

The values below come from patent US9957298B2, “Peptides as oxytocin agonists” (Hoffmann-La Roche Inc., priority 2014, dated 2018).

Starred links: 1 amine or outer side, 2 acyl side, 3 side chain; linkers in the order of their positions; H or OH if unused. Positions of bridges follow the written chain, without caps; N, C: chain ends. Non-standard residues stand in square brackets, D forms with d. Residues, ends and D or L forms follow the SMILES beside them. 2Thi = N[C@@H](Cc1cccs1)C(=O)O; Phg = N[C@H](C(=O)O)c1ccccc1; Suc = O=C(CCC(=O)[*:2])[*:1]; NcPrGly = O=C(O)CNC1CC1; Dap = NC[C@H](N)C(=O)O; Sar = CNCC(=O)O Bounds are passed on as bounds.

T3 sequence (P30518 whole entry): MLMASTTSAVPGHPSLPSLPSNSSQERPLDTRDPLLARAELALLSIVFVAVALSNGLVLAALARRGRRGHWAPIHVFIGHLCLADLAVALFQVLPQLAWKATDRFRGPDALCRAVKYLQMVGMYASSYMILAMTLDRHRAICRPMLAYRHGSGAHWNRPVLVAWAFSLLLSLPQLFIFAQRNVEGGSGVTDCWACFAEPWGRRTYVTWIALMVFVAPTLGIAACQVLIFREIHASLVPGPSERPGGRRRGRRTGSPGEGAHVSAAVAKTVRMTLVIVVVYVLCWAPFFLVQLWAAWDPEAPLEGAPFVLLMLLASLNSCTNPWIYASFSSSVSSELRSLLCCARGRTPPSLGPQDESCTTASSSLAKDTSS
T1 sequence (P37288 whole entry): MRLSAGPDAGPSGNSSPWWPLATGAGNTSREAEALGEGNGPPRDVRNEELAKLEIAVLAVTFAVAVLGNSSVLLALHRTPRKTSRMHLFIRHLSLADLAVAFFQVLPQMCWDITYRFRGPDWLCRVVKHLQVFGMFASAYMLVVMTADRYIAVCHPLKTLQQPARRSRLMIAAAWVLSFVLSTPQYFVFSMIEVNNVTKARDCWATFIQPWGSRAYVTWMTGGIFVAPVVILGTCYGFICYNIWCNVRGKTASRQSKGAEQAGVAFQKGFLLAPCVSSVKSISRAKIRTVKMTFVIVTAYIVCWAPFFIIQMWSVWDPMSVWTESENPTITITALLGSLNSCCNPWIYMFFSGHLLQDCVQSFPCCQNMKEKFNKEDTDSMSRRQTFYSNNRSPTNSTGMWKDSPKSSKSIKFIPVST

In the case of `CC[C@H](C)[C@@H]1NC(=O)[C@H](Cc2ccc(O)cc2)NC(=O)CCC(=O)NC[C@@H](C(=O)N2CCC[C@H]2C(=O)N[C@H](C(=O)NCC(N)=O)c2ccccc2)NC(=O)[C@H](CC(N)=O)NC(=O)[C@H](CCC(N)=O)NC1=O` [Example 19] (YIQN[Dap]P[Phg]G-NH2; linker N-5 via Suc), the values for the EC50 (at human V1a receptor; in test [1]; on human V2 receptor) were 470 nM, 0.4 nM and 59 nM, respectively. In addition, in test [1], the Emax turned out to be 114%. On human V2 receptor (setting [2]), the “hV2 efficacy (%)” value is on record as 114%.

Regarding `CC[C@H](C)[C@@H]1NC(=O)[C@H](Cc2ccc(O)cc2)NC(=O)CCC(=O)NC[C@@H](C(=O)N(C)CC(=O)N[C@@H](CCSC)C(=O)NCC(N)=O)NC(=O)[C@H](CC(N)=O)NC(=O)[C@H](CCC(N)=O)NC1=O` [Example 26] (YIQN[Dap][Sar]MG-NH2; linker N-5 via Suc), the EC50 on human V1a receptor was > 27000 nM; in test [1] it was 0.5 nM; on human V2 receptor it was 281 nM. The Emax in test [1] came out at 107%. Further, at human V2 receptor (setting [2]), the “hV2 efficacy (%)” value turned out to be 119%.

For `CC[C@H](C)[C@@H]1NC(=O)[C@H](Cc2ccc(O)cc2)NC(=O)CCC(=O)NC[C@@H](C(=O)N(C)CC(=O)N[C@@H](CC(C)C)C(=O)NCC(N)=O)NC(=O)[C@H](CC(N)=O)NC(=O)[C@H](CCC(N)=O)NC1=O` [Example 3] (YIQN[Dap][Sar]LG-NH2; linker N-5 via Suc), the EC50 at human V1a receptor was > 27000 nM; in test [1], 0.9 nM; on human V2 receptor, 612 nM. In addition, the Emax in test [1] turned out to be 113%. The “hV2 efficacy (%)” value on human V2 receptor (setting [2]) stood at 130%.

Take `CC[C@H](C)[C@@H]1NC(=O)[C@H](Cc2ccc(O)cc2)NC(=O)CCC(=O)NC[C@@H](C(=O)N(C)CC(=O)N[C@H](C(=O)NCC(N)=O)C(C)C)NC(=O)[C@H](CC(N)=O)NC(=O)[C@H](CCC(N)=O)NC1=O` [Example 5] (YIQN[Dap][Sar]VG-NH2; linker N-5 via Suc): the EC50 on human V1a receptor is > 27000 nM; in test [1], 0.7 nM; on human V2 receptor, 1130 nM. For the same molecule, the Emax was 111% in test [1] and 123% on human V2 receptor (CHO, maximum response normalized to endogenous full agonist = 100%, read-out: hV2 efficacy (%)).

`CC[C@H](C)[C@@H]1NC(=O)[C@H](Cc2ccc(O)cc2)NC(=O)[C@@H](N)CC(=O)NC[C@@H](C(=O)N(C)CC(=O)N[C@@H](CC(C)C)C(=O)NCC(N)=O)NC(=O)[C@H](CC(N)=O)NC(=O)[C@H](CCC(N)=O)NC1=O` [Example 2] (H-DYIQN[Dap][Sar]LG-NH2; lactam 1-6): the EC50 at human V1a receptor was > 27000 nM. For the same molecule, in test [1], the EC50 was found to be 4 nM and the “hOT efficacy (%)” value is given as 144%.

On to `CC[C@H](C)[C@@H]1NC(=O)[C@H](Cc2ccc(O)cc2)NC(=O)CCC(=O)NC[C@@H](C(=O)N2CCC[C@H]2C(=O)N[C@@H](CO)C(=O)NCC(N)=O)NC(=O)[C@H](CC(N)=O)NC(=O)[C@H](CCC(N)=O)NC1=O` [Example 11] (YIQN[Dap]PSG-NH2; linker N-5 via Suc), for which, in test [1], the EC50 was found to be 3 nM and the “hOT efficacy (%)” value was found to be 128%.

As for `CC[C@H](C)[C@@H]1NC(=O)[C@H](Cc2ccc(O)cc2)NC(=O)CCC(=O)NC[C@@H](C(=O)N2CCC[C@H]2C(=O)N[C@@H](Cc2cnc[nH]2)C(=O)NCC(N)=O)NC(=O)[C@H](CC(N)=O)NC(=O)[C@H](CCC(N)=O)NC1=O` [Example 15] (YIQN[Dap]PHG-NH2; linker N-5 via Suc), in test [1], the EC50 was determined as 8 nM and the “hOT efficacy (%)” value came out at 123%.

For the molecule `CC[C@H](C)[C@@H]1NC(=O)[C@H](Cc2ccc(O)cc2)NC(=O)CCC(=O)NC[C@@H](C(=O)N(CC(=O)N[C@H](C(=O)NCC(N)=O)[C@@H](C)O)C2CC2)NC(=O)[C@H](CC(N)=O)NC(=O)[C@H](CCC(N)=O)NC1=O` [Example 44] (YIQN[Dap][NcPrGly]TG-NH2; linker N-5 via Suc), in test [1], the EC50 came to 0.9 nM and the Emax came to 115%.

For the molecule `CC[C@H](C)[C@@H]1NC(=O)[C@H](Cc2ccc(O)cc2)NC(=O)CCC(=O)NC[C@@H](C(=O)N(C)CC(=O)N[C@@H](Cc2cccs2)C(=O)NCC(N)=O)NC(=O)[C@H](CC(N)=O)NC(=O)[C@H](CCC(N)=O)NC1=O` [Example 34] (YIQN[Dap][Sar][2Thi]G-NH2; linker N-5 via Suc), in test [1], the EC50 came out at 3 nM and the “hOT efficacy (%)” value is 106%.

Take `CC[C@H](C)[C@@H]1NC(=O)[C@H](Cc2ccc(O)cc2)NC(=O)CCC(=O)NC[C@@H](C(=O)N2CCC[C@H]2C(=O)N[C@@H](Cc2ccccc2)C(=O)NCC(N)=O)NC(=O)[C@H](CC(N)=O)NC(=O)[C@H](CCC(N)=O)NC1=O` [Example 14] (YIQN[Dap]PFG-NH2; linker N-5 via Suc): in test [1], the EC50 came to 6 nM and the “hOT efficacy (%)” value is 122%.

As to `CC[C@H](C)[C@@H]1NC(=O)[C@H](Cc2ccc(O)cc2)NC(=O)CCC(=O)NC[C@@H](C(=O)N2CCC[C@H]2C(=O)N[C@H](C(=O)NCC(N)=O)[C@@H](C)CC)NC(=O)[C@H](CC(N)=O)NC(=O)[C@H](CCC(N)=O)NC1=O` [Example 9] (YIQN[Dap]PIG-NH2; linker N-5 via Suc), in test [1], the EC50 was found to be 1 nM and the “hOT efficacy (%)” value is reported as 132%.

Regarding `CC[C@H](C)[C@@H]1NC(=O)[C@H](Cc2ccc(O)cc2)NC(=O)CCC(=O)NC[C@@H](C(=O)N2CCC[C@H]2C(=O)N[C@@H](Cc2cccs2)C(=O)NCC(N)=O)NC(=O)[C@H](CC(N)=O)NC(=O)[C@H](CCC(N)=O)NC1=O` [Example 21] (YIQN[Dap]P[2Thi]G-NH2; linker N-5 via Suc), in test [1], the EC50 was determined as 4 nM and the “hOT efficacy (%)” value stood at 126%.

For `CC[C@H](C)[C@@H]1NC(=O)[C@H](Cc2ccc(O)cc2)NC(=O)CCC(=O)NC[C@@H](C(=O)N(C)CC(=O)N[C@@H](Cc2c[nH]c3ccccc23)C(=O)NCC(N)=O)NC(=O)[C@H](CC(N)=O)NC(=O)[C@H](CCC(N)=O)NC1=O` [Example 36] (YIQN[Dap][Sar]WG-NH2; linker N-5 via Suc), in test [1], the EC50 was determined as 2 nM and the “hOT efficacy (%)” value came to 111%.

For `CC[C@H](C)[C@@H]1NC(=O)[C@H](Cc2ccc(O)cc2)NC(=O)CCC(=O)NC[C@@H](C(=O)N2CCC[C@H]2C(=O)N[C@H](C(=O)NCC(N)=O)[C@@H](C)O)NC(=O)[C@H](CC(N)=O)NC(=O)[C@H](CCC(N)=O)NC1=O` [Example 10] (YIQN[Dap]PTG-NH2; linker N-5 via Suc), in test [1], the concentration for a half-maximal effect (EC50) amounted to 1 nM and the “hOT efficacy (%)” value is listed as 130%.

Consider `CC[C@H](C)[C@@H]1NC(=O)[C@H](Cc2ccc(O)cc2)NC(=O)CCC(=O)NC[C@@H](C(=O)N(C)CC(=O)N[C@@H](Cc2ccccc2)C(=O)NCC(N)=O)NC(=O)[C@H](CC(N)=O)NC(=O)[C@H](CCC(N)=O)NC1=O` [Example 33] (YIQN[Dap][Sar]FG-NH2; linker N-5 via Suc), for which, in test [1], the EC50 worked out at 3 nM and the “hOT efficacy (%)” value amounted to 111%.
